Experimental data reported in ChEMBL document CHEMBL3751724, “Bioactive lignan derivatives from the stems of Firmiana simplex” (Bioorg Med Chem Lett, 2016).

Legend:
[1] = Antineuroinflammatory activity in mouse BV2 cells assessed as inhibition of LPS-induced nitric oxide production after 24 hrs by Griess assay; assay type: functional, cell-based; conditions: BV-2, 24 h
[2] = Cytotoxicity against LPS-stimulated mouse BV2 cells assessed as cell viability at 20 uM by MTT assay relative to control; assay type: cell-based, BV-2; conditions: read-out: Activity

COc1cc([C@@H]2Oc3c(OC)cc(/C=C/C=O)cc3[C@H]2CO)ccc1O
IC50 [1]: 7.07 µM | viability at 20 µM [2]: 115%

c1cc2c(cc1[C@@H]1OC[C@@H]3[C@H]1CO[C@H]3c1ccc3c(c1)OCO3)OCO2
IC50 [1]: 26.3 µM | viability at 20 µM [2]: 126%

COc1cc(C(O)C(CO)Oc2c(OC)cc([C@@H]3Oc4c(OC)cc(/C=C/C=O)cc4[C@H]3CO)cc2OC)ccc1O (stereo partly drawn)
IC50 [1]: 15.3 µM | viability at 20 µM [2]: 129%

COc1cc([C@@H](O)[C@@H](CO)Oc2ccc(/C=C/C=O)cc2OC)ccc1O
IC50 [1]: 1.05 µM | viability at 20 µM [2]: 123%

COc1cc([C@H](O)[C@@H](CO)Oc2ccc(/C=C/C=O)cc2OC)ccc1O
IC50 [1]: 0.929 µM | viability at 20 µM [2]: 129%

COc1cc([C@H]2OC[C@H]3[C@@H]2CO[C@@H]3c2ccc(O)c(OC)c2)ccc1O
IC50 [1]: 31.1 µM | viability at 20 µM [2]: 111%

Oc1ccc([C@@H]2OC[C@H]3[C@H](c4ccc5c(c4)OCO5)OC[C@@]23O)cc1
IC50 [1]: 35.4 µM | viability at 20 µM [2]: 109%

COc1cc(C(O)C(CO)Oc2c(OC)cc([C@@H]3OC[C@@H]4[C@H]3CO[C@H]4c3ccc(O)c(OC)c3)cc2OC)ccc1O (stereo partly drawn)
IC50 [1]: 19.3 µM | viability at 20 µM [2]: 121%

COc1cc([C@@H](O)[C@H](CO)Oc2c(OC)cc([C@@H]3OC[C@H]4[C@H](c5ccc(O)c(OC)c5)OC[C@@]34O)cc2OC)ccc1O
IC50 [1]: > 500 µM | viability at 20 µM [2]: 108%

COc1cc([C@@H]2Oc3c(OC)cc(/C=C/C=O)cc3[C@H]2CO)cc(OC)c1O
IC50 [1]: 10 µM | viability at 20 µM [2]: 120%

COc1cc(C(OC)[C@H]2CO[C@H](c3ccc(O)c(OC)c3)[C@H]2CO)ccc1O (stereo partly drawn)
IC50 [1]: 33 µM | viability at 20 µM [2]: 115%

COc1cc([C@@H]2OC[C@@H]3[C@H]2CO[C@H]3c2cc(OC)c(O)c(OC)c2)cc(OC)c1O
IC50 [1]: 27.5 µM | viability at 20 µM [2]: 110%

COc1cc([C@@H](O)[C@@H](CO)Oc2ccc(/C=C/CO)cc2OC)ccc1O (relative stereo)
IC50 [1]: 32.6 µM | viability at 20 µM [2]: 117%

COc1cc([C@@H](O)[C@@H](CO)Oc2c(OC)cc(/C=C/CO)cc2OC)ccc1O (relative stereo)
IC50 [1]: 23.5 µM | viability at 20 µM [2]: 120%

COc1cc([C@@H](O)[C@@H](CO)Oc2ccc(C=O)cc2OC)ccc1O (relative stereo)
IC50 [1]: 47.6 µM | viability at 20 µM [2]: 116%

COc1cc(/C=C/CO)ccc1O[C@H](CO)[C@@H](O)c1cc(OC)c(O)c(OC)c1 (relative stereo)
IC50 [1]: 9.14 µM | viability at 20 µM [2]: 123%

COc1cc([C@@H]2OC[C@@]3(O)[C@H](c4ccc5c(c4)OCO5)OC[C@@H]23)ccc1O (relative stereo)
IC50 [1]: > 500 µM | viability at 20 µM [2]: 108%

COc1cc([C@@H]2OC[C@@H]3[C@H]2CO[C@H]3c2ccc(O)c(OC)c2)ccc1O [(+)-PINORESINOL]
IC50 [1]: 25.1 µM | viability at 20 µM [2]: 115%

COc1cc([C@@H]2OC[C@@H]3[C@H]2CO[C@H]3c2ccc3c(c2)OCO3)ccc1O [PIPERITOL]
IC50 [1]: 32.6 µM | viability at 20 µM [2]: 113%
